Reference: patent US20260076885A1, “Complexation of Oxybenzone with C-methylresorcin[4]arene” (University of Cincinnati, priority 2021, published 2026)

Legend:
[1] = background, cited from earlier work
in vitro = in vitro ADME, human
Experimental: The skin permeation of OXB was evaluated using 6% OXB formulations with and without RsC1 in a Franz diffusion cell (FIG. 9 and Table 1).
The amounts of OXB remaining on the skin surface, inside the skin, and on the surface of the donor chamber cap were also determined at the end of the skin permeation experiments. The average total recovery of OXB from the permeation study was approximately 75%.
In addition, the amount of RsC1 that permeated through the skin to the receptor chamber was determined using an HPLC assay.
Rinse 1: rinsing once using receptor chamber solution (PBS with 0.02% sodium azide and 3% cyclodextrin); Rinse 2: rinsing four times using a methanol/water (85:15) solution. The values for the rinses, cut-up skin, and donor chamber cap were adjusted to correct for the extraction method and RsC1 interference during the OXB assay.
Skin permeation studies of OXB were performed using split-thickness human skin in a Franz diffusion cell with a 0.7 cm2 diffusion area. The skin samples were labeled with the code of the skin donor (n=3, CC, RT, or SL) and the same group of skin donors was used in each experiment. To prepare the skin samples, the cadaver skin was cut into 1.5 cm×1.5 cm pieces, thawed in Petri dishes with PBS at room temperature for 2 h, and then patted dry with Kimwipes before being mounted onto the diffusion cell with the stratum corneum side facing up. PBS containing 0.02% sodium azide as a preservative and 3% cyclodextrin as a solubilizing agent for OXB was used as the solution in the receptor chamber. The TEWL of the skin sample was measured to ensure skin integrity before the permeation study. For TEWL measurements, a vapometer was placed on top of the donor chamber of the diffusion cell and the measurement was repeated until a constant TEWL value was obtained (2-3 measurements, 15 min apart). Only skin samples with TEWL values of <10 g/m2/h were used for permeation experiments.
After the TEWL measurement, the skin in the diffusion cell was allowed to equilibrate for 1 h. During this equilibration period, the skin surface was maintained at 32±1° C. The receptor medium was stirred with a magnetic stirrer at 600 rpm to ensure uniform mixing. The permeation study was initiated by applying 2 mg/cm2 of the test formulation on the skin surface in the diffusion cell. The dose of 2 mg/cm2 was selected based on FDA guidelines. The test formulations were 6% OXB and 6% OXB+RsC1 (1:1) in ethanol. At 0, 3, 6, 10, 12, and 24 h after dosing, 0.5 mL samples were withdrawn from the receptor chamber and immediately replaced with the same volume of fresh PBS solution to maintain a constant receptor solution volume. At the end of the experiment, the residual formulation in the donor compartment was recovered by rinsing once with the receptor chamber solution (PBS with 0.02% sodium azide and 3% cyclodextrin) and four times with methanol/water (85:15) solution (each time with 0.5 ml for 30 s). The treated areas were then dried with Kimwipes. The donor chamber cap and gasket were soaked in 5 ml of methanol/water (85:15) solution for 30 min. The skin was then removed from the diffusion cell, cut into small pieces, and extracted with 4×1 ml of methanol/water (85:15) solution. Blank skin samples were used as the control. The samples collected from the receptor chamber, the rinses, and skin extraction were centrifuged (3000×g for 15 min), and OXB content in the supernatant was determined using HPLC. Statistical analysis was performed using the Student's unpaired t-test and p<0.05 was considered significant.
The HPLC assay was conducted using a Shimadzu HPLC system (Shimadzu Scientific Instruments, Inc., Addison, IL) with an LC-20 AT pump, an SPD-20A UV-Vis detector, a SL-20A autoinjector, and a Microsorb-MV100-5 C18 column (150×4.6 mm, Agilent Technologies, Santa Clara, CA). The mobile phase was methanol and water at a ratio of 85:15. The flow rate was 0.8 ml/min. […]

| Total OXB recovered, Average (%) (in vitro; human, 24 h, 6 %) | recovery at 24 h, 6 % (in vitro; human, Average total recovery of OXB from the permeation study) [%] | recovery at 24 h, 6 % (in vitro; human, Recovery of OXB, Donor chamber cap, Average (%)) [%] | recovery at 24 h, 6 % (in vitro; human, Recovery of OXB, Rinse 1, Average (%)) [%] | recovery at 24 h, 6 % (in vitro; human, Recovery of OXB, Rinse 2, Average (%)) [%] | recovery at 24 h, 6 % (in vitro; human, Recovery of OXB, Skin cut-up, Average (%)) [%] | Amount of RsC1 permeated through the skin to the receptor chamber (in vitro) | Compound | Fraction of OXB that can penetrate human skin ([1]; Franz diffusion cell) [%] | Fraction of OXB entering the bloodstream and eliminated through urine [1] [%] |
| --- | --- | --- | --- | --- | --- | --- | --- | --- | --- |
| 70.3 | ~75 | 0.6 | 24 | 22.9 | 2.7 | – | COc1ccc(C(=O)c2ccccc2)c(O)c1 [OXB, Oxybenzone] | 10 | 0.4 |
| – | – | – | – | – | – | negligible | CC1c2cc(c(O)cc2O)C(C)c2cc(c(O)cc2O)C(C)c2cc(c(O)cc2O)C(C)c2cc1c(O)cc2O (stereo not drawn) [RsC1, C-methylresorcin[4]arene] | – | – |
